Assay results from a melting point compilation (Tetko et al.; mined from patent text by program, amines drawn as free bases though some values may be those of a salt).

First: COc1cc2c(cc1Nc1ncc(Cl)c(Nc3ccccc3S(=O)(=O)N(C)C)n1)CCN(CC(=O)N1CCCC1)CC2
Second: Cc1cc(-n2ccnc2)c2cccc(OCc3c(Cl)ccc(S(=O)(=O)N4CCC[C@H]4C(=O)NCC4CCN(C(=O)c5cccnc5)CC4)c3Cl)c2n1
The melting point of the first is lower: 75 to 93 °C for the first, 109 °C for the second.

First: CC(=O)NC[C@H]1CN(c2ccc3c(c2)CC[C@@H](C)N3C=O)C(=O)O1
Second: CC(=O)NCC1CC1c1ccc(Cl)c2nn(C)cc12 (stereo unspecified)
The melting point of the first is lower: 89 to 91 °C for the first, 153 to 155 °C for the second.

Compared with `C[C@H](C#Cc1ccc(Cc2ccc(Cl)cc2)s1)N(O)C(N)=O`, `FC(F)(F)c1cnc(Cc2ccc(Cl)cc2)c(Cl)c1` is lower in melting point: 132 °C for the first, 54 to 56 °C for the second.

First: CC(=O)N(C(C)=O)c1cc2c(cc1C)N(C(C)=O)c1ccc(N(C)C)cc1N2C(C)=O
Second: COc1cc(OC)c(C(=O)c2cc(Cl)ccc2NC(C)=O)c(OC)c1
The melting point of the first is higher: 231 to 234 °C for the first, 159 to 160 °C for the second.

First: CN(C)CNS(=O)(=O)c1ccc(-c2cnn(Cc3ccc(F)cc3F)c(=O)c2-c2ccc(F)cc2)cc1
Second: NS(=O)(=O)c1cccc(-c2cccc(-c3nc(-c4ccc(C(F)(F)F)cc4)cc(C(F)(F)F)n3)c2)c1
The melting point of the first is lower: 193 to 195 °C for the first, 267 °C for the second.

First: O=C(NCCC1CC1)c1ccc(N2CCN(C(=S)c3ccccc3C(F)(F)F)CC2)nn1
Second: O=C(Nc1ccccc1)c1cnc2c(C(F)(F)F)cccc2c1-c1ccccc1
The melting point of the first is lower: 117 to 120 °C for the first, 207 to 208 °C for the second.

First: COc1cc(C=O)ccc1OCc1coc(-c2ccccc2)n1
Second: COC(=O)c1cccc(-c2nc(COc3ccc(C=O)cc3OC)c(C)o2)c1
The melting point of the first is lower: 119 to 120 °C for the first, 168 to 169 °C for the second.

First: CCCCNC(=O)COC1C(O)C(CO)OC(Oc2ccc(N)cc2)C1O (stereo unspecified)
Second: Nc1ccc(P(=O)(O)O)cc1
The melting point of the first is lower: 135 °C for the first, 257 to 260 °C for the second.

First: O=C(CNc1ccccc1)Nc1c(Cl)cccc1C(=O)O
Second: NC(=O)c1cccc(Oc2ncccc2C(=O)NCc2ccccc2Cl)c1
The melting point of the first is higher: 184 to 185 °C for the first, 153 to 155 °C for the second.

Compared with `CCN(CC)C(=O)C1=C(C(=O)Nc2ccc(Cl)cc2F)CCCC1`, `CC(=O)NCCNC(=O)c1ccc(Cl)cc1` is higher in melting point: 105 to 106 °C for the first, 222 to 224 °C for the second.

Going from `CNC(=O)C1CN(CC(=O)Nc2c(Cl)cc(C(C)=O)cc2Cl)CCN1CCCCN(c1ccc(F)cc1)c1ccc(F)cc1` (stereo unspecified) to `Cc1cc(-n2ccnc2)c2cccc(OCc3c(Cl)ccc(S(=O)(=O)N4CCC[C@H]4C(=O)N(C)CCCN(C)C(=O)OC(C)(C)C)c3Cl)c2n1`, the melting point falls from 85 °C to 70 °C.

First: O=C(O)CCc1cc2cc(Cl)ccc2n1S(=O)(=O)c1ccc2ncsc2c1
Second: CC1C(=O)N(C(=O)NS(=O)(=O)c2ccc(Cl)cc2)N1C(c1ccccc1)c1ccccc1 (stereo unspecified)
The melting point of the first is lower: 96 to 100 °C for the first, 124 to 129 °C for the second.

First: O=C(c1cc2c(Br)cccc2o1)c1cc2c(Br)cccc2o1
Second: COc1cc(NC(=O)Nc2c(-c3ccccc3Cl)c3cc(C)ccc3oc2=O)cc(OC)c1OC(C)=O
The melting point of the first is lower: 223 to 225 °C for the first, 238 to 240 °C for the second.

First: CCOCCOc1ccc(-c2ccc3c(c2)C=C(C(=O)OC)CCN3)cc1
Second: CCOc1ccc(NC(=O)CC(Cc2cccc3ccccc23)C(=O)O)cc1 (stereo unspecified)
The melting point of the first is lower: 102 to 108 °C for the first, 131 to 135 °C for the second.

First: Nc1c(Cl)cc(C(=O)NC2CCN(CC3CCCO3)CC2)c2c1CCO2 (stereo unspecified)
Second: Cc1nc2c3c(c(C(=O)NC4CC4)cc2n1C)CCC1(Cc2ccccc2C1)N3
The melting point of the first is lower: 175 °C for the first, 247 to 248 °C for the second.

First: CCn1cc(C(=O)O)c(=O)cc1-c1ccc(N2CCCC2)cc1
Second: Cc1cc(OCCN2CCOCC2)nn1-c1ccc2c(O)cccc2c1
The melting point of the first is higher: 276 to 278 °C for the first, under 70 °C for the second.

First: CC(=O)c1c(C)c(NC(=O)NC(C)(C)C)c(C)c2c1OCC2c1ccc(C(C)C)cc1 (stereo unspecified)
Second: C[C@H](NC(=O)OC(C)(C)C)C(=O)OCCCNc1cccc2c1C(=O)c1ccccc1C2=O
The melting point of the first is higher: 207 to 208 °C for the first, 58 °C for the second.

Compared with `CCCCCCSc1nn2c(=O)cc(-c3ccccc3)nc2s1`, `CNC1=Nc2ccsc2C(c2ccccc2)=NC1` is higher in melting point: 90 to 91 °C for the first, 223 to 227 °C for the second.

First: CN(Cc1cccnc1)C(=N)NC#N
Second: CS(=O)(=O)N(Cc1cccnc1)c1ccc(OCC(F)(F)F)cc1
The melting point of the first is higher: 141 to 143 °C for the first, 69 to 70 °C for the second.

First: CC1=CCC(NC(=O)NS(=O)(=O)c2ccc(CCNC(=O)N3CCC(C)CC3=O)cc2)CC1 (stereo unspecified)
Second: CNC(=O)NS(=O)(=O)c1cc(CCNC(=O)/C=C/c2cccs2)ccc1OCCOC
The melting point of the first is higher: 173 to 175 °C for the first, 99 °C for the second.

First: Oc1ccc(C2OCN3C2=CCC3CCc2ccccc2)cc1 (stereo unspecified)
Second: NC1=NN(c2ccccc2)C(c2ccc(Cl)cc2)C1 (stereo unspecified)
The melting point of the first is lower: 176 °C for the first, 184 to 186 °C for the second.

First: CCOc1cc2cc(OC)c(OC)cc2c(Cc2ccc(OC)c(OC)c2)n1
Second: CCOC(=O)c1c(CN(C)c2ccccc2)nc2cc(OC)c(OC)cc2c1-c1ccc(OC)c(OC)c1
The melting point of the first is lower: 110 to 112 °C for the first, 194 to 196 °C for the second.

Compared with `N#Cc1nn(-c2c(Cl)cc(C(F)(F)F)cc2Cl)c(N)c1C1(C(F)(F)F)CC1`, `O=[N+]([O-])c1cc([N+](=O)[O-])c(Nc2nc(Cl)ccc2C(F)(F)F)c(C(F)(F)F)c1` is lower in melting point: 178 to 179 °C for the first, 129 to 131 °C for the second.

First: CC1CCc2c(c3c(O)cc(C(C)CCCc4ccc(F)cc4)cc3oc2=O)C1 (stereo unspecified)
Second: Fc1ccc2c(c1)C(=C1CCNCC1)c1ccccc1C=C2
The melting point of the first is lower: 127 to 129 °C for the first, 161 °C for the second.

First: Clc1ccc(CNc2ccccc2-n2ccnc2)c(Cl)c1
Second: NCCC(Nc1ccccc1)c1ccccc1 (stereo unspecified)
The melting point of the first is lower: 100 to 103 °C for the first, 104 to 105 °C for the second.

Compared with `C=C(C)c1cccc(-n2c(C(F)(F)F)nn(C)c2=S)c1`, `COc1cccc(-c2ncc3n2CC(=O)N(C)C3)c1` is higher in melting point: 64 to 66 °C for the first, 115 to 117 °C for the second.

First: COc1ccnc(CSc2nc3c(C)c(OC(F)F)c(C)cc3[nH]2)c1C
Second: COc1cc(-c2c(Cl)c(CNC(C)(C)C)nc3sc4c(c23)CCNC4)ccc1OC(C)C
The melting point of the first is higher: 190 to 191 °C for the first, 157 to 158 °C for the second.

First: C[C@H](Cn1ccnc1)NC(=O)c1c[nH]c2ncc(-c3nn(C)c4cc(Cl)ccc34)nc12
Second: CC(C)COc1ccc(-c2ccc3nnn(Cc4ccc5ccccc5n4)c3n2)cc1F
The melting point of the first is higher: 276 to 279 °C for the first, 115 to 157 °C for the second.

First: CNC(=O)NC(=O)C(CC1CCCC1)c1ccc(S(C)(=O)=O)c(C#N)c1 (stereo unspecified)
Second: Cc1ccc(NS(=O)(=O)c2ccccc2)cc1NC(=O)Cc1ccc(C#N)cc1
The melting point of the first is higher: 237 to 239 °C for the first, 120 to 122 °C for the second.

First: COC(=O)C1CC(c2ccncc2)CCC1=O (stereo unspecified)
Second: COCCN(CCC12CC3CC(CC(C3)C1)C2)C(=O)NCCCc1ccncc1
The melting point of the first is lower: 82 to 83 °C for the first, 102 to 104 °C for the second.

Compared with `CCC1(CC)c2cc(Br)ccc2-c2ccc(-c3nc4ccccc4s3)cc21`, `CCc1nc2c(N)nc3ccccc3c2n1Cc1cc(-c2ccc(F)cc2)no1` is higher in melting point: 134 to 135 °C for the first, 232 to 233 °C for the second.

First: Cc1cc2cc(O)ccc2c(Oc2ccc(/C=C/C(=O)O)cc2)c1-c1ccc(O)cc1
Second: Cc1ccc(S(=O)(=O)OCC(O)Cc2cc(Cl)c3ccccc3c2OCc2ccccc2)cc1 (stereo unspecified)
The melting point of the first is higher: 162 to 164 °C for the first, 85 to 87 °C for the second.

First: Cc1cn(C2CC(ON)C(CO[Si](C)(C)C(C)(C)C)O2)c(=O)[nH]c1=O (stereo unspecified)
Second: CC(C)(C)[Si](C)(C)N1C(=O)CC1SC(c1ccccc1)(c1ccccc1)c1ccccc1 (stereo unspecified)
The melting point of the first is higher: 171 °C for the first, 113 to 114 °C for the second.

First: Cc1cc(C#N)ccc1-c1cccc(-c2nc3cc(C#N)ccc3[nH]2)c1
Second: COc1ccc2c(c1)C(=O)N(c1ccc3ccn(CC#N)c3c1)C2
The melting point of the first is higher: 247 to 250 °C for the first, 218 to 220 °C for the second.

First: CCCCNC(=O)[C@@H](C[C@H](O)[C@@H](N)C[C@H](Cc1ccc(OC)c(CCOCOC)c1)C(C)C)C(C)C
Second: COc1ccccc1CCNC(=O)c1ccc2c(c1)C=CC(C)(C)O2
The melting point of the first is lower: 56 to 58 °C for the first, 125 to 130 °C for the second.

First: O=C1c2cccc(O)c2Cc2cccc(O)c21
Second: O=C(CCl)Nc1ccc2c(c1NC(=O)c1cccs1)C(=O)c1ccccc1C2=O
The melting point of the first is higher: 231 to 233 °C for the first, 190 to 191 °C for the second.

First: COc1cc(OCc2ccccn2)ccc1/C=C/c1cc(/C=C/c2ccc3ccn(S(C)(=O)=O)c3c2)n[nH]1
Second: CCCc1c(OCCCOCCCOc2ccc3ccc(OCC(=O)O)cc3c2C(C)=O)ccc(C(C)=O)c1O
The melting point of the first is higher: 212 to 214 °C for the first, 101 to 104 °C for the second.

First: O=C1NC(=O)C(S(=O)(=O)c2ccccc2)S1 (stereo unspecified)
Second: CC(c1ccccc1)n1cncc1C(=O)O (single isomer, unassigned; (-))
The melting point of the first is lower: 130 to 133 °C for the first, 155 °C for the second.

Compared with `Cc1nc(N)sc1-c1ccnc(Nc2ccc3c(c2)OCO3)n1`, `CC(=O)NCc1cccc(-c2csc(N=C(N)N)n2)n1` is lower in melting point: 211 to 213 °C for the first, 198 to 200 °C for the second.

Compared with `CC1=C(CN2CC(C(=O)O)C2)CCc2cc(OCc3ccc(C(F)(F)F)cc3C(F)(F)F)ccc21`, `CN1C(=O)[C@@H](NC(=O)c2ccc(C(F)(F)F)cc2)N=C(c2ccccc2)c2ccccc21` is lower in melting point: 155 to 165 °C for the first, 125 to 127 °C for the second.

Compared with `N#Cc1ccc(N=C=O)cc1Cl`, `Cc1cc(Cl)cc(CO)c1` is lower in melting point: 198 to 201 °C for the first, 32 to 34.5 °C for the second.

Compared with `NC(=O)C(N)c1ccc(F)cc1F` (stereo unspecified), `CC(C)NC(=O)c1c(C(=O)O)ccc(Cl)c1Cl` is higher in melting point: 143 °C for the first, 155 to 156 °C for the second.

Compared with `COc1ccc2[nH]c(C(=O)C34CC5CC(CC(C5)C3)C4)cc2c1`, `CC1(C)Oc2ccc(C#N)cc2[C@@H](OC2=CC(=O)CC2)[C@@H]1O` (relative stereo) is lower in melting point: 229 to 231 °C for the first, 154 to 156 °C for the second.

First: Cc1cn(C(C)C(=O)N2CCOCC2)nc1-c1ccccc1 (stereo unspecified)
Second: Cc1cn(C(C)C(=O)N(C)C)nc1-c1cccs1 (stereo unspecified)
The melting point of the first is lower: 84 to 96 °C for the first, 100 to 102 °C for the second.

First: CSc1nnc(SCC2=C(C(=O)O)N3C(=O)C(NC(=O)Cc4csc(=O)s4)C3SC2)s1 (stereo unspecified)
Second: O=C(O)c1ccccc1Nc1ccc(CCCc2ccc([N+](=O)[O-])cc2)cc1
The melting point of the first is higher: 160 °C for the first, 150 to 153 °C for the second.

Compared with `Cn1ccnc1CCNS(=O)(=O)c1ccccc1[N+](=O)[O-]`, `CC(C)(C)OC(=O)NCC(=O)Nc1ccccc1OCc1ccccc1` is lower in melting point: 193 to 199 °C for the first, 80 to 82 °C for the second.

First: Cc1cc2nncc(O)c2cc1C
Second: CC1(C)CC(C2=NN(CC#N)C(=O)N(/N=C/c3cncc(F)c3)C2)=NO1
The melting point of the first is higher: over 260 °C for the first, 195 to 197 °C for the second.

First: C[C@H](C(=O)O)C(C)(C)c1ccccc1
Second: O=C(O)C(CC=Cc1ccccc1)Cc1cccc2ccccc12 (stereo unspecified)
The melting point of the first is lower: 69 to 72 °C for the first, 135 to 137 °C for the second.
